PubChem BioAssay AID2742 (NMMLSC, 2010)
Where “and” joins values, the source holds several entries; their conditions need not be identical. Equal entries are not always repeated. Calls of active or inactive are those of the source.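 The calls were made as follows: active = fitted half-maximal concentration for changing background-corrected GFP signal at or below a set limit; inactive = the rest.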

Assay: TOR pathway reporter MEP2-GFP, concentration series – S. cerevisiae, flow cytometry GFP, MLPCN hits, dose response (AID 2742);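 also: GFP tag reports level of MEP2 protein as a downstream target of TOR signalling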
Conditions: S. cerevisiae MEP2-GFP strain, flow cytometry fluorescence, 3 h; at 33 µM (top of the series)

Compound	GFP fluorescence (kMESF), higher = increase
CCOC(=O)CS(=O)(=O)c1nc(-c2ccccc2)cc(C(F)(F)F)n1	6.41 kMESF (inactive)
O=C1ON=C(c2ccccc2)/C1=C/c1ccc(-c2ccccc2[N+](=O)[O-])o1	5.5 kMESF (inactive)
Nc1nc2ncc(CNc3ccc(C(=O)N[C@@H](CCC(=O)O)C(=O)O)cc3)nc2c(=O)[nH]1	1.95 kMESF (inactive)
CC(=O)Oc1ccc(/C=c2\sc3ncnn3c2=O)cc1	3.91 kMESF (inactive)
CC(C)(C)C(=O)NC(=S)NNC(=O)c1sc2ccccc2c1Cl	4.68 kMESF (inactive)
Cc1ccc(S(=O)(=O)c2ccc([N+](=O)[O-])cn2)cc1	5.31 kMESF (inactive)
CCOc1ccc(C(Nc2cccnc2)c2cc(Cl)c3cccnc3c2O)cc1 (stereo unspecified)	4.24 kMESF (inactive)
COc1cc(NC(=O)c2ccc(C)cc2)ccc1NC(=O)c1cc2ccccc2o1	2.3 kMESF (inactive)
CCCc1nnc(NC(=O)c2c(O)c3cccc4c3n(c2=O)CCC4)s1	-1.47 kMESF (inactive)
O=[N+]([O-])c1ccc(-c2cn3nc(-c4ccccc4)c(-c4ccccc4)nc3n2)cc1	4.08 kMESF (inactive)
Cc1ccc(S(=O)(=O)N2CCCC2C(=O)NCc2ccncc2)cc1 (stereo unspecified)	2.1 kMESF (inactive)
COc1cc(/C=C2\C(=O)N(CCC#N)N=C2C)c(Br)cc1OC(C)C	4.57 kMESF (inactive)
Cc1cc(C(=O)COC(=O)c2ccc[nH]c2=O)c(C)n1-c1ccccc1F	1.88 kMESF (inactive)
CC(C)(C)n1nc(-c2ccc(Cl)cc2)c2c(N)ncnc21	6.05 kMESF (inactive)
Cc1ccc(S(=O)(=O)ON2C(=O)c3ccccc3C2=O)c(C)c1	5.06 kMESF (inactive)
CCCOc1ccc(C(=O)NNC(=S)NC(=O)c2ccco2)cc1	4.58 kMESF (inactive)
Oc1ccc2ccccc2c1N=Nc1nccs1	4.97 kMESF (inactive)
COc1cccc(/C=N/Nc2ncc(C(F)(F)F)cc2Cl)c1O	3.26 kMESF (inactive)
O=C(C#Cc1ccccc1)c1cccc([N+](=O)[O-])c1	4.67 kMESF (inactive)
Cc1ccsc1/C=C1\C(=O)NC(=S)N(C)C1=O	3.66 kMESF (inactive)
CC(C)C(=O)NC(c1cccs1)c1cc([N+](=O)[O-])c2cccnc2c1O (stereo unspecified)	3.41 kMESF (inactive)

Compound	GFP fluorescence (kMESF), higher = increase
CC(=O)NN1C(=O)/C(=C/c2ccc(Br)o2)SC1=S	-0.17 kMESF (inactive)
O=C(Nc1ccc(Cl)cc1Cl)c1cccc(N2C(=O)C=CC2=O)c1	4.39 kMESF (inactive)
O=C(c1ccc([N+](=O)[O-])o1)N1CCN(c2nc3c(F)cc(F)cc3s2)CC1	-3.51 kMESF (inactive)
Cc1cc(NC(c2ccc(Cl)cc2)c2ccc3cccnc3c2O)no1 (stereo unspecified)	4.11 kMESF (inactive)
CCOc1ccc(N2C(=O)/C(=C\c3cccs3)C(=O)NC2=S)cc1	3.57 kMESF (inactive)
Nc1c(C(=O)c2cccs2)sc2nsc(SCCN3CCCCC3)c12	15.6 kMESF (inactive)
C[C@H]1C[C@@H](C)C(=O)[C@@H]([C@H](O)CC2CC(=O)NC(=O)C2)C1	3.18 kMESF (inactive)
COc1ccc(CCNC2=C(Cl)C(=O)N(CCc3ccc(OC)c(OC)c3)C2=O)cc1OC	2.9 kMESF (inactive)
Cc1cccnc1Nc1nc(-c2ccccn2)cs1	2.08 kMESF (inactive)
CCN(CC)c1ccc2cc(-c3nc(-c4ccc(OC)cc4)cs3)c(=O)oc2c1	0.72 kMESF (inactive)
O=[N+]([O-])c1ccc(O)c2ncccc12	3.94 kMESF (inactive) and 3.38 kMESF (inactive)
CC1=C(C)/C(=N\OS(=O)(=O)c2ccccc2)C=CC1=O	4.84 kMESF (inactive)
C=CCn1c(C)c(/C=C/c2cc[n+](C)cc2)c2ccccc21	5.92 kMESF (inactive)
O=C1c2cccc3c([N+](=O)[O-])ccc(c23)C(=O)N1c1ccccn1	12.2 kMESF (inactive)
CCOc1ccc(N2C(=O)C(Cl)=C(Nc3ccccc3O)C2=O)cc1	4.31 kMESF (inactive)
CCC1(c2ccccc2)ON(c2c(Br)cccc2Br)C1=O (stereo unspecified)	3.17 kMESF (inactive)
O=[N+]([O-])c1cc(Cl)cc(/C=N\Nc2ccccn2)c1O	4.91 kMESF (inactive)
Cc1ccc(S(=O)(=O)N2CC(C(=O)O)=CC[C@H]2c2ccc(Cl)cc2)cc1	3.69 kMESF (inactive)
Fc1cccc(Nc2ncnc3c2cnn3-c2ccccc2)c1	2.97 kMESF (inactive)
O=C(Oc1c(Cl)cc(Cl)c2cccnc12)c1cccc([N+](=O)[O-])c1	4.13 kMESF (inactive)
